The structures appear in SMILES notation.

Data set [1] has as its target T1, HMG-CoA reductase (Rattus norvegicus, UniProt P51639).
T1 sequence (P51639 1-887): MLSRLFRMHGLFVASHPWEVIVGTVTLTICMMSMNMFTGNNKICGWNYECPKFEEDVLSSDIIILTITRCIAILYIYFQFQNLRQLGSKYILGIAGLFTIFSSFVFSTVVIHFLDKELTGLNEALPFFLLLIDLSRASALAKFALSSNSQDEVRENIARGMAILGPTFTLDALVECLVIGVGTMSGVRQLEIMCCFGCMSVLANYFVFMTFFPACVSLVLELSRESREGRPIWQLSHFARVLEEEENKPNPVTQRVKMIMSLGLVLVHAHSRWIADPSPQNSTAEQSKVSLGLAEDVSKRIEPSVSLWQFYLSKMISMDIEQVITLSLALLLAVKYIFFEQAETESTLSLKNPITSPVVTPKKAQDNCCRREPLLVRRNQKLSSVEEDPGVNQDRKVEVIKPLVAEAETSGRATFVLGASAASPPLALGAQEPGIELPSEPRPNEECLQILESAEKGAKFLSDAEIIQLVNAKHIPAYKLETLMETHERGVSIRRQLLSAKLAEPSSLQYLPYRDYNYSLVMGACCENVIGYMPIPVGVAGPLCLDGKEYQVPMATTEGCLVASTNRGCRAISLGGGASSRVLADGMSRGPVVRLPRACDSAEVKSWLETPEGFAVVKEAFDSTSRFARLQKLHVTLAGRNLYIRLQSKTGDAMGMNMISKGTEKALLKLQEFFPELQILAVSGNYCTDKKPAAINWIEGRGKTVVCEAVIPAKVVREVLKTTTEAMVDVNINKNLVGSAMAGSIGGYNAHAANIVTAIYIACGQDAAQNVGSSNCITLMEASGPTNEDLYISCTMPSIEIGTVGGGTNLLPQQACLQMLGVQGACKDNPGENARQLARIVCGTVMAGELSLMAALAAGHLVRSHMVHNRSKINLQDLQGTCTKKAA
The experiment in a line: inhibition of HMG-CoA reductase activity on solubilized enzyme preparations from rat liver microsomes. The class given is biochemical. Conditions: solubilized rat liver microsomal enzyme; mean of 3 parallel samples; optically pure compounds.

Data set [2] deals with cholesterol biosynthesis in HEP G2 cells. The experiment in a line: inhibition of cholesterol biosynthesis in HEP G2 cell cultures by incorporation of 14C-precursor (14C-acetate) in cholesterol. The class given is cell-based. Conditions: Homo sapiens, HepG2, 1 hour preincubation, 3 hours with 14C-acetate. How it is done:
In addition, the inhibition of cholesterol biosynthesis in cell cultures was tested with selected compounds by the incorporation of ^14 C-precursor in cholesterol.
Monolayers of HEP G2 cells in Lipoprotein-free nutrient medium were incubated with various concentrations of the test substances for 1 hour. After addition of the ^14 C-labeled precursor sodium ^14 C-acetate, the incubation was continued for 3 hours. Then ^3 H-cholesterol was added as internal standard, and some of the cells were hydrolyzed with alkali. The lipids were extracted from the hydrolyzed cells using chloroform/methanol. Carrier cholesterol was added to this lipid mixture which was then subjected to preparative thin-layer chromatography, the cholesterol band was visualized with iodine vapor and then isolated, and the amount of ^14 C-cholesterol formed from the ^14 C-precursor was determined by scintigraphy. Cellular protein was determined in an aliquot of the cells, so that it is possible to calculate the amount of ^14 C-cholesterol formed from the ^14 C-precursor per mg of cellular protein in unit time. The solvent control is used for comparison with the inhibitory effect of an added test product, so that the inhibition of cholesterol biosynthesis at a particular molar concentration of the test product in the medium can be stated. The absence of cell damage due to the action of the products was confirmed in an aliquot of the cell culture by the morphology (light microscope). The IC50 values of the test products are stated in mol/l (in Table II), and their relative potencies are compared with mevinolin sodium salt and mevinolin lactone (comparison of the IC50 values).

The next data set has as its system total serum cholesterol. The experiment in a line: cholesterol-lowering efficacy in normolipidemic male New Zealand rabbits. The data set is classed as in vivo, rabbit. How it is done:
(§1) The cholesterol-lowering efficacy was investigated in the following test on rabbits Normolipidemic male New Zealand rabbits (weight 3-3.5 kg, 4-6 animals per test group) received the test compounds suspended in a 1% strength aqueous carboxymethylcellulose solution (®Tylose) by gavage each day in the morning; the control group received only Tylose solution. Venous blood was taken every 3 to 4 days 20 hours after the oral administration of the solutions. The total cholesterol content in these samples was determined enzymatically using the Boehringer Mannheim assay kit (CHOD-PAP-high performance method). The serum cholesterol level in the group treated with test compounds was compared with that in the control group. The treatment period was followed by a period in which the test compounds were no longer administered.

The next data set deals with liver enzyme levels. The experiment in a line: liver enzyme levels in the rabbit test. The data set is classed as in vivo. Conditions: 10 mg/kg/day by gavage; rabbits. How it is done: as §1
The serum cholesterol levels returned to their initial value within 3 days after discontinuation of the product (after 10 days).

The test system of data set [3] is HMG-CoA reductase. As to conditions: Endo et al. 1976; Brown et al. 1976; cited from earlier work.

As for `CC(C)c1nc(-c2ccccc2)cc(-c2ccc(F)cc2)c1/C=C/[C@@H](O)[C@H](F)[C@@H](O)CC(=O)O`, the midpoint of inhibition at HMG-CoA reductase [1], the IC50, lay at 8.5 nM.

The compound `CC(C)c1nc(-c2ccccc2)cc(-c2ccc(F)cc2)c1CC[C@@H](O)[C@@H](F)[C@@H](O)CC(=O)O` showed an IC50 at HMG-CoA reductase [1] of 20 nM.

As for `CC(C)c1nc(-c2ccccc2)nc(-c2ccc(F)cc2)c1/C=C/[C@@H](O)[C@H](F)[C@@H](O)CC(=O)O`, the 50% inhibitory concentration (IC50) against HMG-CoA reductase [1] worked out at 36 nM.

`CC(C)c1cc(-c2ccccc2)cc(-c2ccc(F)cc2)c1/C=C/[C@@H](O)[C@H](F)[C@@H](O)CC(=O)O`: the IC50 against HMG-CoA reductase [1] was 6.3 nM.

As for `Cc1cc(C)c(/C=C/[C@@H](O)[C@H](F)[C@@H](O)CC(=O)O)c(-c2ccc(F)cc2)c1`, at HMG-CoA reductase [1], the IC50 stood at 98 nM.

In the case of `O=C1C[C@H](O)[C@@H](F)[C@@H](CSc2c(Cl)cc(Cl)cc2C(c2ccc(F)cc2)c2ccc(F)cc2)O1` [Example 12, 6-(2,4-Dichloro-6-(bisparafluorophenylmethyl)phenylthio)-3(R),5(S)-dihydroxy-4(R)-fluorohexanoic acid lactone], the IC50 turned out to be 2000 nM on HMG-CoA reductase [1] and 5500 nM in data set [2].

For `CCCCc1cc(Cl)cc(Cl)c1/C=C/[C@H]1OC(=O)C[C@H](O)[C@H]1F` [Example 18, 7-(2-n-Butyl-4,6-dichlorophenyl)-3(S),5(R)-dihydroxy-4(R)-fluoro-E-hept-6-enoic acid lactone], the IC50 against HMG-CoA reductase [1] worked out at 32 nM; in data set [2], 320 nM.

In the case of `CC(C)c1nc(-c2ccccc2)cc(-c2ccc(F)cc2)c1/C=C/[C@H]1OC(=O)C[C@H](O)[C@H]1F` [Example 34, 3(S),5(R)-Dihydorxy-4(R)-fluoro-7-(2-isopropyl-4-parafluorophenyl-6-phenyl-3-pyridyl)hept-6E-enoic acid lactone], the IC50 in data set [2] was 110 nM. The “time within which the 40% lowering of total cholesterol was reached” value in the data set with total serum cholesterol (10 mg/kg/day by gavage) is at most 3 days. Further, in the data set with total serum cholesterol (10 mg/kg/day by gavage in 1% carboxymethylcellulose, within 3 days, vs control group), the “lowering of total cholesterol” value stood at 40%. The “course of total cholesterol lowering during administration” value in the data set on total serum cholesterol (10 mg/kg/day by gavage, 10 days) is listed as “remained constant throughout the administration”. In the data set on total serum cholesterol (10 mg/kg/day by gavage, discontinuation after 10 days), the “time for serum cholesterol levels to return to initial value after discontinuation” value is reported as at most 3 days. For the same compound, in the data set with liver enzyme levels, the “changes in the liver enzyme levels” value is listed as “without eliciting abnormal or pathological changes in the liver enzyme levels”.

In data set [2], `CC(C)c1nc(-c2ccccc2)nc(-c2ccc(F)cc2)c1/C=C/[C@H]1OC(=O)C[C@H](O)[C@H]1F` [Example 38, 3(S),5(R)-dihydroxy-4(R)-fluoro-7-[6-parafluorophenyl-4-isopropyl-2-phenyl-1,3-diazin-5-yl]hept-6E-enoic acid lactone] gave an IC50 of 250 nM.

As for `CC[C@H](C)C(=O)O[C@H]1CCC=C2C=C[C@H](C)[C@H](CC[C@@H]3C[C@@H](O)CC(=O)O3)[C@H]21` [compactin], in the data set with HMG-CoA reductase [3], the “inhibition of HMG-CoA reductase (in words)” value is recorded as “potent competitive inhibitor of HMG-CoA reductase”.

(Values after patent US4898868A, “3-demethyl-4-fluoromevalonic acid derivatives, a process for the preparation thereof, pharmaceutical products based on these compounds, the use thereof, and intermediates” (Hoechst Aktiengesellschaft, priority 1987, dated 1990).)
